Data published in patent US20260373132A1, “PERK INHIBITORHC-5404 IN COMBINATION WITH ANTI-PD-1 ANTIBODY AND/OR AN ANTIANGIOGENETIC AGENT FOR USE IN THE TREATMENT OF CANCER” (HIBERCELL, INC., priority 2022, published 2026).

Legend:
pPERK in 786-O tumors = assay: pPERK in 786-O tumor xenografts; type: in vivo, mouse; conditions: for pPERK accumulation in 786-O tumors: PD arm, 7 days of dosing, single agent; for pPERK levels in 786-O tumors: single agent PO, several dose levels, 21 days (FIG. 26)
[1] = system: tumor vasculature of 786-O xenografts; assay: IHC of tumor vasculature in 786-O xenografts; type: in vivo, mouse
Procedure: (§1) Formalin-fixed paraffin-embedded samples were sectioned at 5 μm thickness and mounted on Superfrost Plus microscope slides (Fisher Scientific). All immunohistochemical (IHC) staining was performed on Bond Rx auto-stainer (Leica Biosystems) using the conventional TSA-amplified detection system. Primary antibodies used were as follows: α-CD31 (Abcam #ab182981), α-smooth muscle actin (SMA; Abcam #ab124964), α-Meca32 (Novus Biologicals #NB100-77668). TSA-conjugated Alexa488 and Alexa647 fluorophores from Invitrogen (#B40953 and #B40958) were used at 1:500 dilution. Slides were counterstained with DAPI and cover slipped using Mowiol antifade mounting media (Sigma #D2522).
(§2) Slides were imaged with Aperio Versa 200 (Leica Biosystems) whole-slide scanner using 10×/0.32NA objective, and the data were analyzed using custom-written macros in ImageJ/FIJI (NIH). Briefly, 150 μm of outer edges of the tumor sections were eliminated from the analysis. Gaussian-blurred DAPI channel was used to measure the area of the tissue. Scans of […] were processed with median filter to remove noise, then positive areas were measured with appropriate threshold levels. % positive area for each marker was calculated. CD31-SMA double positive areas were measured via image calculation of the binary images. One-way ANOVA and pair-wise comparisons were performed on the data using Prism GraphPad.
PERK is an adaptive stress response that links hypoxia and nutrient deprivation with proangiogenic signaling. The effect of HC-5404 on tumor vasculature when administered in combination with antiangiogenic VEGFR-TKIs was investigated.
As immature blood vessels mature, they develop a mural layer of cells that express smooth muscle actin (SMA), which encircles and stabilizes the maturing vessel. Co-staining for both CD31 and SMA was conducted to determine whether treatments were affecting mature or immature tumor blood vessels.
This example investigated the inhibition the effect of cabozantinib on the formation of new tumor vasculature and on pericytes following procedures analogous to those described above.

786-O RCC xenograft = 786-O RCC xenograft tumor growth; type: in vivo, mouse; conditions: for effect on tumor volume: single agent, efficacy arms (FIG. 28)
Procedure: (§3) Xenograft RCC models were generated as follows: Female NOD.SCID mice (6-8 weeks of age) were injected with A498 RCC cells (5×10^6 cells/mouse), female Balb/c Nude mice (6-8 weeks old) were implanted with 786-O RCC cells (5×10^6 cells/mouse) or Caki-1 RCC cells (6×10^6 cells/mouse), female Athymic Nude-Foxn1nu mice (7-8 weeks of age) were implanted with MFE280 endometrial cells (10×10^6 cells/mouse). Cells were implanted into the flank of animals.
(§4) Once tumor tumors reached volume of typically 150-250 mm^3, animals were randomized by tumor volume into the treatment groups of 8 or 10 animals per group. In the single animal trial with RCC PDX models, only one animal per group was enrolled.
(§5) Body weight and tumor volume were measured twice weekly. Tumor volume was calculated using the formula [tumor volume (mm^3)=π/6×length×width^2] and plotted as means+SEM. The percentage of tumor growth inhibition was calculated at the end of the study using the formula: […], if ΔT>0, ΔT, mean tumor volume of the drug-treated group on the observation day of the study—mean tumor volume of the drug-treated group on initial day of dosing; ΔC, mean tumor volume of the control group on the observation day of the study—mean tumor volume of the control group on initial day of dosing. Regression was calculated using the formula=100×ΔT/Tinitial, if ΔT<0. Animals with >50% regressions were partial responders. Animals with tumor volume of 0 (no measurable tumor) were considered as complete responders, and animals with <50% tumor regression and 30% growth over the baseline were considered as stable disease. Animals with tumors>30% increase over the baseline were considered progressive disease. The % change in body weight was calculated by the formula (body weight on observation day−body weight on initial day)/body weight on initial day×100%.

[2] = mouse body weight / tolerability; type: in vivo; conditions: for body weight loss: 786-O xenografts, single agent PO, 21 days (FIG. 26)
Procedure: as §5

[3] = system: tumor vasculature and pericyte cells of 786-O xenografts progressed on axitinib; assay: IHC of tumor vasculature and pericytes in 786-O xenografts that progressed on axitinib; type: in vivo, mouse
Procedure: as §1, §2
After 14 days of treatments, 77 mice bearing the largest tumors were rerandomized into four PD arms (n=8), four efficacy arms (n=10), and 5 tumors sampled on day of rerandomization as a baseline. The remaining animals were removed from study.

[4] = system: RCC patient-derived xenografts (PDXs); assay: single-animal study in RCC PDX models; type: in vivo, mouse
Text: For patient derived xenograft model generation, small pieces of neuroendocrine pancreatic cancers were implanted into female NSG mice (6-8 weeks of age), fragments of Huprime gastric cancers were implanted into female Balb/c nude mice and for a single animal trial in RCC PDX models, tumor fragments from selected RCC PDX models were implanted into mice unilaterally.
as §4
(§6) Body weight and tumor volume were measured twice weekly. Tumor volume was calculated using the formula [tumor volume (mm^3)=π/6×length×width^2] and plotted as means+SEM. The percentage of tumor growth inhibition was calculated at the end of the study using the formula: 100−[1−(ΔT/ΔC)], if ΔT>0, ΔT, mean tumor volume of the drug-treated group on the observation day of the study—mean tumor volume of the drug-treated group on initial day of dosing; ΔC, mean tumor volume of the control group on the observation day of the study—mean tumor volume of the control group on initial day of dosing. Regression was calculated using the formula=100×ΔT/Tinitial, if ΔT<0. Animals with >50% regressions were partial responders. […]

[5] = system: MFE280 endometrial cancer model; assay: MFE280 endometrial xenograft tumor growth; type: in vivo, mouse; conditions: single agent: HC-5404 30 mg/kg PO BID or lenvatinib 10 mg/kg QD (FIG. 77)
Procedure: as §3, §4
as §6, with “ΔT<0.” for “ΔT<0. Animals with >50% regressions were partial responders.”

Caki-1 RCC xenograft = Caki-1 RCC xenograft tumor growth; type: in vivo, mouse; conditions: HC-5404 or sunitinib monotherapy, compared with A498 (FIG. 32)
Procedure: as §3, §4, §5

A498 RCC xenograft = A498 RCC xenograft tumor growth; type: in vivo, mouse; conditions: single agent: HC-5404 30 mg/kg PO BID or sunitinib 20 mg/kg PO QD (FIG. 31)
Procedure: as §3, §4, §5

[6] = 7 days after rerandomization (FIG. 92)

CNC(=O)c1ccccc1Sc1ccc2c(/C=C/c3ccccn3)n[nH]c2c1 [axitinib]
pPERK accumulation in 786-O tumors (pPERK in 786-O tumors): induced pPERK accumulation | pPERK levels in 786-O tumors (pPERK in 786-O tumors): dose-dependent increases in pPERK | proportion of Meca32 expressing vascular endothelial cells ([1]; axitinib study (FIG. 38, 39)): decreased | immature CD31+SMA− vessels ([1]; axitinib study (FIG. 39)): decreased | mature CD31+SMA+ cells ([1]; axitinib study (FIG. 39)): did not affect | effect on tumor volume (786-O RCC xenograft): modest effects on tumor volume | body weight loss [2]: no treatment-associated body weight loss was observed | proportion of cells expressing CD31 [3, 6]: decreased by axitinib | proportion of smooth muscle actin (SMA) [3, 6]: decreased | number of Meca32+ and CD31+ cells ([3]; FIG. 41, 42): decreased | MCAM+ cells ([3]; FIG. 43, 44): decreased by axitinib | partial responses (PRs) among models ([4]; 15 RCC PDX models, 28 days, PR: regression >50% vs baseline (FIG. 35)): 1/15 | sensitivity of VHLwt models to axitinib ([4]; three of the VHLwt models): decreased sensitivity to axitinib

COc1cc2nccc(Oc3ccc(NC(=O)C4(C(=O)Nc5ccc(F)cc5)CC4)cc3)c2cc1OC [cabozantinib]
pPERK accumulation in 786-O tumors (pPERK in 786-O tumors): induced pPERK accumulation | pPERK levels in 786-O tumors (pPERK in 786-O tumors): dose-dependent increases in pPERK | immature vasculature (CD31+SMA− cells) ([1]; cabozantinib study (FIG. 54, 55)): near complete loss of immature vasculature | partial responses (786-O RCC xenograft; cabozantinib 30 mg/kg QD alone or with HC-5404 10 or 30 mg/kg BID (each group)): 2/8 | tumor response (786-O RCC xenograft; cabozantinib 30 mg/kg QD monotherapy (FIG. 52)): tumor stasis | effect on tumor volume (786-O RCC xenograft): modest effects on tumor volume | body weight loss [2]: no treatment-associated body weight loss was observed | mouse body weight ([2]; 786-O, HC-5404 3, 10, 30 mg/kg BID and/or cabozantinib 30 mg/kg QD (FIG. 53)): did not affect mouse body weight

COc1cc2nccc(Oc3ccc(NC(=O)NC4CC4)c(Cl)c3)c2cc1C(N)=O [lenvatinib]
pPERK accumulation in 786-O tumors (pPERK in 786-O tumors): induced pPERK accumulation | pPERK levels in 786-O tumors (pPERK in 786-O tumors): dose-dependent increases in pPERK | effect on tumor volume (786-O RCC xenograft): modest effects on tumor volume | body weight loss [2]: no treatment-associated body weight loss was observed | TGI % [5]: ~ 85%

CCN(CC)CCNC(=O)c1c(C)[nH]c(/C=C2\C(=O)Nc3ccc(F)cc32)c1C [sunitinib, reference compound]
pPERK accumulation in 786-O tumors (pPERK in 786-O tumors): induced pPERK accumulation | pPERK in 786-O xenografts (pPERK in 786-O tumors; sunitinib single agent): increased pPERK | time course of pPERK increase in 786-O xenografts (pPERK in 786-O tumors; sunitinib single agent): increased over time | inhibition of 786-O growth (786-O RCC xenograft; sunitinib single agent 40 mg/kg QD (FIG. 28)): effective inhibitor of 786-O growth | sensitivity of Caki-1 to monotherapy (Caki-1 RCC xenograft): far less sensitive | TGI (A498 RCC xenograft): 80%
